“And” between values parts separate entries of the source, which are not always exact repeats. Identical values can stand only once.
Columns and labels:
CYP3A4 [1] = test: qRT-PCR CYP3A4 expression in HLCs; format: cell-based, human; details: HLCs in AA3 medium with or without 2% of the single amino acid or mix; Figure 4B
Method: (§1) AA supplementation was accomplished through the addition of MEM Non-Essential Amino Acids Solution (100 × ) and MEM Amino Acids Solution (50 × ) (Thermo Scientific) to the culture medium. For AA1, AA2, and AA3 medium, we added respectively 2 ml, 8 ml, and 16 ml of non-essential AA solution and 1 ml, 4 ml, and 8 ml of essential AA solution per 100 ml of LDM, with or without glucose. Culture medium was then made PH neutral through the addition of NaOH. […] PSC derived HLCs were differentiated in LDM until D12. AA supplementation (AA1, AA2 and AA3) was performed from day 12 until day 20, 30 or 40 of differentiation. […] HepG2, HUH7.5, Hep3B, HHL5, and HEK293 cells were maintained in DMEM supplemented with 10% fetal bovine serum as shown in Supplementary Table 4. AA supplementation consisted of addition of 16 ml of non-essential AA mix and 8 ml of essential AA mix per 100 ml of medium and a further addition of 20 g/l of any of the single AAs. Hepatoma cell lines were plated in normal culture medium, with addition of AA3 + 20 g/l AA once cells reached 60% confluency, and this for 3 or 7 additional days of culture. PHHs were maintained in a medium composition that was based on WE as detailed in ref. [67].
RNA extraction was performed using the GenElute Mammalian Total RNA Miniprep Kit (Sigma-Aldrich). Then, genomic DNA was eliminated using the On-Column DNase I Digestion kit (Sigma-Aldrich). […]

CYP3A4 [2] = test: qRT-PCR CYP3A4 expression in HepG2; format: cell-based, human
Method: as §1, with “Hepatoma cell lines were plated in normal culture medium, with addition of AA3 + 20 g/l AA once cells reached 60% confluency, and this for 3 or 7 additional days of culture.” left out
RNA extraction was performed using the GenElute Mammalian Total RNA Miniprep Kit (Sigma-Aldrich). Then, genomic DNA was eliminated using the On-Column DNase I Digestion kit (Sigma-Aldrich). Last, 1 µg of RNA was transcribed to cDNA using the Superscript III First-Strand synthesis (Invitrogen). Gene expression analysis was performed using the Platinum SYBR green qPCR supermix-UDG kit (Invitrogen) in a ViiA 7 Real-Time PCR instrument (Thermo Scientific, Waltham, MA). The sequences of all used qRT-PCR primers are listed in Supplementary Table 6. Of these, ribosomal protein L19 (RPL19) was used as a housekeeping gene for normalization.

CYP3A4 [3] = details: HepG2 in AA3+GLY medium with rapamycin
Method: Protein amount was measured using a pierce BCA protein assay kit (Thermo Scientific).

| relative CYP3A4 expression (compared to LDM 2% DMSO D20) (CYP3A4 [1]) | Relative CYP3A4 expression (CYP3A4 [2]; single amino acid supplementation, relative to CTL (CTL values equal HepG2 D7 CTL)) | Relative CYP3A4 expression (CYP3A4 [2]; HepG2 AAGLY D30 with RAPA) | effect on AA-mediated induction of CYP3A4 (CYP3A4 [3]) | SMILES |
| --- | --- | --- | --- | --- |
| 50.8533 and 59.0748 and 76.4937 | 39.34 and 55.9446 and 51.9815 | – | – | CC(C)[C@H](N)C(=O)O [VAL, valine] |
| – | – | 1.244 and 1.301 and 1.514 | blocked the induction of CYP3A4 | CO[C@H]1C[C@@H]2CC[C@@H](C)[C@@](O)(O2)C(=O)C(=O)N2CCCC[C@H]2C(=O)O[C@H]([C@H](C)C[C@@H]2CC[C@@H](O)[C@H](OC)C2)CC(=O)[C@H](C)/C=C(\C)[C@@H](O)[C@@H](OC)C(=O)[C@H](C)C[C@H](C)/C=C/C=C/C=C/1C [rapamycin] |

Reference: article PMC7069944, “Amino acid levels determine metabolism and CYP450 function of hepatocytes and hepatoma cell lines” (Nature Communications, 2020)
